Molecules are shown by their SMILES. pIC50: −log10 of the molar value.

One test has as its target human recombinant HDAC1 (Homo sapiens (Human), UniProt Q13547). Kind of test: HDAC1 enzyme activity inhibition assay (HDAC Fluorimetric Drug Discovery Kit). The class given is biochemical. Particulars: human recombinant HDAC1, Fluor de Lys substrate 10 μM, 60 minutes. As to the method:
In order to examine the HDAC6 selectivity of the compounds of formula I of the present invention by HDAC1 and HDAC6 enzymatic activity inhibition assays, an experiment was performed using a conventional substance as a control.
HDAC enzyme activity was measured using a HDAC Fluorimetric Drug Discovery Kit (BML-AK511, 516, Enzo Life Science). For the HDAC1 enzyme activity test, human recombinant HDAC1 (BML-SE456) was used as an enzyme source, and Fluor de Lys®-“SIRT1 (BNL-KI177) was used as a substrate. A 5-fold dilution of the compound was seeded into a 96-well plate, and then 0.3 μg of the enzyme and 10 μM of the substrate were added to each well of the plate and allowed to react at 30 for 60 minutes. Then, Fluor de Lys®-Developer II (BML-KI176) was added thereto and allowed to react for 30 minutes, after which the fluorescence value (Ex 360, Em 460) was measured using a multi-plate reader (Flexstation 3, Molecular Device). The HDAC6 enzyme was tested using human recombinant HDAC6 (382180) (Calbiochem) according to the same protocol as the HDAC1 enzyme activity test method. Based on the resulting values, each IC50 value was calculated using GraphPad Prism4.0 program.

A further test deals with human recombinant HDAC6 (Homo sapiens (Human), UniProt Q9UBN7). Kind of test: HDAC6 enzyme activity inhibition assay (HDAC Fluorimetric Drug Discovery Kit). The following applies: for HDAC6 selectivity (fold): HDAC6 versus HDAC1; for pIC50: human recombinant HDAC6, same protocol as HDAC1 test. The class given is biochemical. A digest of the protocol: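 Recombinant human HDAC1 or HDAC6 (0.3 μg) reacted with 10 μM Fluor de Lys-SIRT1 substrate and 5-fold compound dilutions for 60 min at 30 °C, followed by 30 min developer. Fluorescence read at Ex 360/Em 460; IC50 calculated from the values.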
human recombinant HDAC6, sequence (Q9UBN7 whole entry): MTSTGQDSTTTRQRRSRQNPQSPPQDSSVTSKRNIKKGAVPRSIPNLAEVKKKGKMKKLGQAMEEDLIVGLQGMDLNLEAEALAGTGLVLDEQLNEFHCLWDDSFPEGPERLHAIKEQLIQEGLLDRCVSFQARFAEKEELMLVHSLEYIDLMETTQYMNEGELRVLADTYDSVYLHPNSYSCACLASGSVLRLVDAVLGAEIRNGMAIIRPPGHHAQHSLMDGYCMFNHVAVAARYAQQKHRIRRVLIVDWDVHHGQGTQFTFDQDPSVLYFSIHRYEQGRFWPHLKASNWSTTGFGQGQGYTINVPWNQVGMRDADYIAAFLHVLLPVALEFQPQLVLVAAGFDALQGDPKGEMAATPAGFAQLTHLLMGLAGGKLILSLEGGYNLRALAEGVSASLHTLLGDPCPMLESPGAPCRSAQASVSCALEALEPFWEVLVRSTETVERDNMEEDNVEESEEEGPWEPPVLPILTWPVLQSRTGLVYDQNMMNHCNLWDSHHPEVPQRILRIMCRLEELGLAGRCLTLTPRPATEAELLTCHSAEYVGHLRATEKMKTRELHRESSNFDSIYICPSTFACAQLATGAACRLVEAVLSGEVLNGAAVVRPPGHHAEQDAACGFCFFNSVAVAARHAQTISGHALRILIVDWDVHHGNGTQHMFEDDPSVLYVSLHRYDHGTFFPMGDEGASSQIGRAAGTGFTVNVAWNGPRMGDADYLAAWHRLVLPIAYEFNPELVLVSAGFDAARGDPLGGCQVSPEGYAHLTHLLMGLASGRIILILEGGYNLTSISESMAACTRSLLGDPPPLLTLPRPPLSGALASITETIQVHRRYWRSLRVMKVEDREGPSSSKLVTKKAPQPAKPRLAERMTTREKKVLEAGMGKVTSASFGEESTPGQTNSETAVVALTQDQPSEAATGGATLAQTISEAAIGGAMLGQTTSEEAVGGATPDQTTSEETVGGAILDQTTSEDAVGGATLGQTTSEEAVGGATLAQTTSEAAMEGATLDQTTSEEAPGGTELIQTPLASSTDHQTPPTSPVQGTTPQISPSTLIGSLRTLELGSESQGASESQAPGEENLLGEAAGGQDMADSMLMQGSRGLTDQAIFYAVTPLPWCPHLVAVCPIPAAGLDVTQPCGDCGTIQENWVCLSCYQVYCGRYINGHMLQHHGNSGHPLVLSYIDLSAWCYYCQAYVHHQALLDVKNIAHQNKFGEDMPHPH

human recombinant HDAC1, sequence (Q13547 whole entry): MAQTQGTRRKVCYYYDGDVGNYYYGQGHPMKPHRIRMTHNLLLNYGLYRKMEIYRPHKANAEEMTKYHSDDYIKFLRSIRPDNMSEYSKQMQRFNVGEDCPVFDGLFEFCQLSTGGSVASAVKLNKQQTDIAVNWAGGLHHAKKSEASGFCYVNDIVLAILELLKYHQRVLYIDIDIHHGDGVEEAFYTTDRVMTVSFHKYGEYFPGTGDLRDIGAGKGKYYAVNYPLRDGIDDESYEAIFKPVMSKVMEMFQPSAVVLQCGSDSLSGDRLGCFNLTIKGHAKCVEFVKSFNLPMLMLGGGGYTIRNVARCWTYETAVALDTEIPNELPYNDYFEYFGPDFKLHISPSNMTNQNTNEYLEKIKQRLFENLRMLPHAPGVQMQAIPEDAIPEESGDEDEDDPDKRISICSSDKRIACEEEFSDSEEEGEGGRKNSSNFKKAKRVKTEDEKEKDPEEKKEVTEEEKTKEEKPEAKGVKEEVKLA

Broadly, the pIC50 is the IC50 on a negative log10 scale, so that one unit is a factor of ten. Regarding `Cl.O=S(=O)(N1CCNCC1)N(Cc1ccc(-c2nnc(C(F)(F)F)o2)cc1F)c1ccccc1` [Compound 11293, N-(2-fluoro-4-(5-(trifluoromethyl)-1,3,4-oxadiazol-2-yl)benzyl)-N-phenylpiperazine-1-sulfonamide Hydrochloride], the pIC50 was 4.12 on human recombinant HDAC1 and 7.18 on human recombinant HDAC6. Besides, the “HDAC6 selectivity (fold)” value on human recombinant HDAC6 is reported as 1156 fold.

As for `Cl.O=S(=O)(N1CCNCC1)N(Cc1ccc(-c2nnc(C(F)(F)F)o2)cc1F)c1cccc(F)c1` [Compound 11309, N-(2-fluoro-4-(5-(trifluoromethyl)-1,3,4-oxadiazol-2-yl)benzyl)-N-(3-fluorophenyl)piperazine-1-sulfonamide Hydrochloride], on human recombinant HDAC1, the pIC50 is 4.38. Further, at human recombinant HDAC6, the “HDAC6 selectivity (fold)” value is recorded as 710 fold and the negative logarithm of the IC50 (pIC50) is 7.24.

As for `O=S1(=O)CCN(S(=O)(=O)N(Cc2ccc(-c3nnc(C(F)F)o3)cn2)c2ccc(F)c(Cl)c2)CC1` [Compound 11498, N-(3-chloro-4-fluorophenyl)-N-((5-(5-(difluoromethyl)-1,3,4-oxadiazol-2-yl)pyridin-2-yl)methyl)thiomorpholine-4-sulfonamide 1,1-dioxide], the pIC50 at human recombinant HDAC1 is 4.31. For the same compound, on human recombinant HDAC6, the “HDAC6 selectivity (fold)” value was determined as 2141 fold and the pIC50 is 7.64.

With `O=S(=O)(N1CCN(C2COC2)CC1)N(Cc1ccc(-c2nnc(C(F)(F)F)o2)cc1F)c1ccccc1` [Compound 11527, N-(2-fluoro-4-(5-(trifluoromethyl)-1,3,4-oxadiazol-2-yl)benzyl)-4-(oxetan-3-yl)-N-phenylpiperazine-1-sulfonamide], the pIC50 on human recombinant HDAC1 is 4.32. At human recombinant HDAC6, the “HDAC6 selectivity (fold)” value came out at 627 fold and the negative-log IC50 (pIC50) is 7.12.

In the case of `O=S(=O)(N1CCN(C2COC2)CC1)N(Cc1ccc(-c2nnc(C(F)(F)F)o2)cn1)c1ccccc1` [Compound 11528, 4-(oxetan-3-yl)-N-phenyl-N-((5-(5-(trifluoromethyl)-1,3,4-oxadiazol-2-yl)pyridin-2-yl)methyl)piperazine-1-sulfonamide], the pIC50 on human recombinant HDAC1 is 4.38. In addition, at human recombinant HDAC6, the “HDAC6 selectivity (fold)” value came to 527 fold and the pIC50 was 7.10.

Turning to `O=S(=O)(N1CCN(C2COC2)CC1)N(Cc1ccc(-c2nnc(C(F)F)o2)cc1)c1ccc(F)c(Cl)c1` [Compound 11653, N-(3-chloro-4-fluorophenyl)-N-(4-(5-(difluoromethyl)-1,3,4-oxadiazol-2-yl)benzyl)-4-(oxetan-3-yl)piperazine-1-sulfonamide], the pIC50 on human recombinant HDAC1 is 4.28. Further, on human recombinant HDAC6, the “HDAC6 selectivity (fold)” value worked out at 1214 fold and the pIC50 is 7.37.

With `CN1CCN(S(=O)(=O)N(Cc2ccc(-c3nnc(C(F)F)o3)cc2)c2ccc(F)c(Cl)c2)CC1` [Compound 11654, N-(3-chloro-4-fluorophenyl)-N-(4-(5-(difluoromethyl)-1,3,4-oxadiazol-2-yl)benzyl)-4-methylpiperazine-1-sulfonamide], the pIC50 on human recombinant HDAC1 is 4.15. For the same compound, on human recombinant HDAC6, the “HDAC6 selectivity (fold)” value is recorded as 1996 fold and the pIC50 was 7.44.

For `CC(=O)N1[C@H](C)CN(S(=O)(=O)N(Cc2ccc(-c3nnc(C(F)F)o3)cn2)c2ccccc2)C[C@@H]1C` [Compound 11659, (3S,5R)-4-acetyl-N-((5-(5-(difluoromethyl)-1,3,4-oxadiazol-2-yl)pyridin-2-yl)methyl)-3,5-dimethyl-N-phenylpiperazine-1-sulfonamide], the pIC50 on human recombinant HDAC1 was 4.14. Further, on human recombinant HDAC6, the “HDAC6 selectivity (fold)” value came to 2753 fold and the negative-log IC50 (pIC50) was 7.59.

For the compound `CC(=O)N1[C@H](C)CN(S(=O)(=O)N(Cc2ccc(-c3nnc(C(F)F)o3)cc2)c2cccnc2)C[C@@H]1C` [Compound 11660, (3S,5R)-4-acetyl-N-(4-(5-(difluoromethyl)-1,3,4-oxadiazol-2-yl)benzyl)-3,5-dimethyl-N-(pyridin-3-yl)piperazine-1-sulfonamide], the pIC50 at human recombinant HDAC1 is 4.12. In addition, on human recombinant HDAC6, the “HDAC6 selectivity (fold)” value came to 1206 fold and the negative logarithm of the IC50 (pIC50) was 7.20.

Take `CCN1[C@H](C)CN(S(=O)(=O)N(Cc2ccc(-c3nnc(C(F)F)o3)cn2)c2ccccc2)C[C@@H]1C` [Compound 11661, (3S,5R)—N-((5-(5-(difluoromethyl)-1,3,4-oxadiazol-2-yl)pyridin-2-yl)methyl)-4-ethyl-3,5-dimethyl-N-phenylpiperazine-1-sulfonamide]: the pIC50 on human recombinant HDAC1 is 3.94. At human recombinant HDAC6, the “HDAC6 selectivity (fold)” value turned out to be 1886 fold and the negative logarithm of the IC50 (pIC50) is 7.21.

As to `C[C@@H]1CN(S(=O)(=O)N(Cc2ccc(-c3nnc(C(F)F)o3)cc2)c2cccnc2)C[C@H](C)N1C` [Compound 11662, (3S,5R)—N-(4-(5-(difluoromethyl)-1,3,4-oxadiazol-2-yl)benzyl)-3,4,5-trimethyl-N-(pyridin-3-yl)piperazine-1-sulfonamide], the negative-log IC50 (pIC50) at human recombinant HDAC1 is 4.26. In addition, on human recombinant HDAC6, the “HDAC6 selectivity (fold)” value turned out to be 1182 fold and the pIC50 was 7.33.

Regarding `CN1CCN(CCN(C)S(=O)(=O)N(Cc2ccc(-c3nnc(C(F)F)o3)cc2)c2ccccc2)CC1` [Compound 11702, 2-((4-(((N-methyl-N-(2-(4-methylpiperazin-1-yl)ethyl)sulfamoyl)(phenyl)amino)methyl))phenyl)-5-(difluoromethyl)-1,3,4-oxadiazole], on human recombinant HDAC1, the pIC50 is 4.30. Moreover, on human recombinant HDAC6, the “HDAC6 selectivity (fold)” value is listed as 542 fold and the pIC50 was 7.03.

The values above are taken from patent publication US10464911B2, “1,3,4-oxadiazole sulfamide derivative compounds as histone deacetylase 6 inhibitor, and the pharmaceutical composition comprising the same” (Chong Kun Dang Pharmaceutical Corp., priority 2015, dated 2019).
